# Data as given in PubChem BioAssay (NCI).
#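 Five concentrations, 48 hours, 96-well plates. At the GI50, growth is halved. TGI marks complete inhibition of growth.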
# Key:
# Experiment in all cases: DTP human tumour cell line panel, 48 h
# ACHN renal = tested on: ACHN renal
# A549 NSCLC = tested on: A549 NSCLC
# UACC-62 melanoma = tested on: UACC-62 melanoma
# NCI-H460 lung = tested on: NCI-H460 lung
# MDA-MB-435 = tested on: MDA-MB-435
# UO-31 renal = tested on: UO-31 renal
# SN12C renal = tested on: SN12C renal
# NCI-H23 lung = tested on: NCI-H23 lung
# NCI-H522 lung = tested on: NCI-H522 lung
# RPMI-8226 leukemia = tested on: RPMI-8226 leukemia
# NCI/ADR-RES ovarian = tested on: NCI/ADR-RES ovarian
# CAKI-1 renal = tested on: CAKI-1 renal
# M14 melanoma = tested on: M14 melanoma
# SK-MEL-5 melanoma = tested on: SK-MEL-5 melanoma
# T-47D breast = tested on: T-47D breast
# UACC-257 melanoma = tested on: UACC-257 melanoma
# HT29 colon = tested on: HT29 colon
# DU-145 prostate = tested on: DU-145 prostate
# A498 renal = tested on: A498 renal
# KM12 colon = tested on: KM12 colon
# PC-3 prostate = tested on: PC-3 prostate
# EKVX NSCLC = tested on: EKVX NSCLC
# SF-268 CNS = tested on: SF-268 CNS
# SK-MEL-2 melanoma = tested on: SK-MEL-2 melanoma
# U251 CNS = tested on: U251 CNS
# HCT-116 colon = tested on: HCT-116 colon
# HCT-15 colon = tested on: HCT-15 colon
# BT-549 breast = tested on: BT-549 breast
# OVCAR-5 ovarian = tested on: OVCAR-5 ovarian
# TK-10 renal = tested on: TK-10 renal
# 786-0 renal = tested on: 786-0 renal
# HOP-92 NSCLC = tested on: HOP-92 NSCLC
# SNB-75 CNS = tested on: SNB-75 CNS
# SK-OV-3 ovarian = tested on: SK-OV-3 ovarian
# HS 578T breast = tested on: HS 578T breast
# OVCAR-4 ovarian = tested on: OVCAR-4 ovarian
# SK-MEL-28 melanoma = tested on: SK-MEL-28 melanoma
# SW-620 colon = tested on: SW-620 colon
# SF-295 CNS = tested on: SF-295 CNS
# RXF 393 renal = tested on: RXF 393 renal
# OVCAR-3 ovarian = tested on: OVCAR-3 ovarian
# NCI-H226 lung = tested on: NCI-H226 lung
# MCF7 breast = tested on: MCF7 breast
# MDA-MB-231 breast = tested on: MDA-MB-231 breast
# HCC-2998 colon = tested on: HCC-2998 colon
# HOP-62 NSCLC = tested on: HOP-62 NSCLC
# SNB-19 CNS = tested on: SNB-19 CNS
# K-562 leukemia = tested on: K-562 leukemia
# IGROV1 ovarian = tested on: IGROV1 ovarian
# LOX IMVI melanoma = tested on: LOX IMVI melanoma
# OVCAR-8 ovarian = tested on: OVCAR-8 ovarian
# SF-539 CNS = tested on: SF-539 CNS
# MALME-3M melanoma = tested on: MALME-3M melanoma
# COLO 205 colon = tested on: COLO 205 colon
compound,measurement,setting,value
CN1CCN(CCCOc2ccc3nc(Nc4cc(Cl)cc(Cl)c4)ccc3c2)CC1,GI50,ACHN renal,1.51 µM
same,TGI,ACHN renal,2.9 µM
same,GI50,A549 NSCLC,2.11 µM
same,TGI,A549 NSCLC,3.8 µM
same,GI50,UACC-62 melanoma,1.81 µM
same,TGI,UACC-62 melanoma,3.76 µM
same,GI50,NCI-H460 lung,1.54 µM
same,TGI,NCI-H460 lung,3.18 µM
same,GI50,MDA-MB-435,1.5 µM
same,TGI,MDA-MB-435,2.94 µM
same,GI50,UO-31 renal,1.58 µM
same,TGI,UO-31 renal,3.24 µM
same,GI50,SN12C renal,1.81 µM
same,TGI,SN12C renal,3.77 µM
same,GI50,NCI-H23 lung,1.63 µM
same,TGI,NCI-H23 lung,3.54 µM
same,GI50,NCI-H522 lung,2.06 µM
same,TGI,NCI-H522 lung,3.74 µM
same,GI50,RPMI-8226 leukemia,2.16 µM
same,TGI,RPMI-8226 leukemia,4.78 µM
same,GI50,NCI/ADR-RES ovarian,1.99 µM
same,TGI,NCI/ADR-RES ovarian,5.78 µM
same,GI50,CAKI-1 renal,1.82 µM
same,TGI,CAKI-1 renal,3.72 µM
same,GI50,M14 melanoma,1.5 µM
same,TGI,M14 melanoma,3.08 µM
same,GI50,SK-MEL-5 melanoma,1.76 µM
same,TGI,SK-MEL-5 melanoma,3.31 µM
same,GI50,T-47D breast,1.99 µM
same,TGI,T-47D breast,4.39 µM
same,GI50,UACC-257 melanoma,2.13 µM
same,TGI,UACC-257 melanoma,3.85 µM
same,GI50,HT29 colon,0.548 µM
same,TGI,HT29 colon,1.84 µM
same,GI50,DU-145 prostate,1.57 µM
same,TGI,DU-145 prostate,3.07 µM
same,GI50,A498 renal,1.8 µM
same,TGI,A498 renal,3.22 µM
same,GI50,KM12 colon,1.53 µM
same,TGI,KM12 colon,2.99 µM
same,GI50,PC-3 prostate,1.93 µM
same,TGI,PC-3 prostate,3.71 µM
same,GI50,EKVX NSCLC,1.63 µM
same,TGI,EKVX NSCLC,3.38 µM
same,GI50,SF-268 CNS,1.48 µM
same,TGI,SF-268 CNS,3.02 µM
same,GI50,SK-MEL-2 melanoma,2.03 µM
same,TGI,SK-MEL-2 melanoma,4.04 µM
same,GI50,U251 CNS,1.61 µM
same,TGI,U251 CNS,3.13 µM
same,GI50,HCT-116 colon,1.58 µM
same,TGI,HCT-116 colon,2.98 µM
same,GI50,HCT-15 colon,0.677 µM
same,TGI,HCT-15 colon,2.11 µM
same,GI50,BT-549 breast,1.9 µM
same,TGI,BT-549 breast,3.58 µM
same,GI50,OVCAR-5 ovarian,1.71 µM
same,TGI,OVCAR-5 ovarian,3.35 µM
same,GI50,TK-10 renal,2.33 µM
same,TGI,TK-10 renal,3.92 µM
same,GI50,786-0 renal,1.58 µM
same,TGI,786-0 renal,3.08 µM
same,GI50,HOP-92 NSCLC,1.46 µM
same,TGI,HOP-92 NSCLC,3.2 µM
same,GI50,SNB-75 CNS,1.11 µM
same,TGI,SNB-75 CNS,2.56 µM
same,GI50,SK-OV-3 ovarian,2 µM
same,TGI,SK-OV-3 ovarian,3.69 µM
same,GI50,HS 578T breast,1.87 µM
same,TGI,HS 578T breast,5.24 µM
same,GI50,OVCAR-4 ovarian,1.79 µM
same,TGI,OVCAR-4 ovarian,5.65 µM
same,GI50,SK-MEL-28 melanoma,1.63 µM
same,TGI,SK-MEL-28 melanoma,3.21 µM
same,GI50,SW-620 colon,1.68 µM
same,TGI,SW-620 colon,3.46 µM
same,GI50,SF-295 CNS,1.41 µM
same,TGI,SF-295 CNS,2.89 µM
same,GI50,RXF 393 renal,1.33 µM
same,TGI,RXF 393 renal,2.93 µM
same,GI50,OVCAR-3 ovarian,1.56 µM
same,TGI,OVCAR-3 ovarian,3.22 µM
same,GI50,NCI-H226 lung,2.14 µM
same,TGI,NCI-H226 lung,5.68 µM
same,GI50,MCF7 breast,1.48 µM
same,TGI,MCF7 breast,3.05 µM
same,GI50,MDA-MB-231 breast,1.56 µM
same,TGI,MDA-MB-231 breast,3.31 µM
same,GI50,HCC-2998 colon,1.54 µM
same,TGI,HCC-2998 colon,3.06 µM
O=C(O)CNC(=O)C(CS)Cc1ccccc1 (centres undefined),GI50,ACHN renal,> 25 µM
same,TGI,ACHN renal,> 25 µM
same,GI50,A549 NSCLC,> 25 µM
same,TGI,A549 NSCLC,> 25 µM
same,GI50,UACC-62 melanoma,> 25 µM
same,TGI,UACC-62 melanoma,> 25 µM
same,GI50,NCI-H460 lung,> 25 µM
same,TGI,NCI-H460 lung,> 25 µM
same,GI50,MDA-MB-435,> 25 µM
same,TGI,MDA-MB-435,> 25 µM
same,GI50,UO-31 renal,> 25 µM
same,TGI,UO-31 renal,> 25 µM
same,GI50,SN12C renal,> 25 µM
same,TGI,SN12C renal,> 25 µM
same,GI50,NCI-H23 lung,> 25 µM
same,TGI,NCI-H23 lung,> 25 µM
same,GI50,HOP-62 NSCLC,> 25 µM
same,TGI,HOP-62 NSCLC,> 25 µM
same,GI50,NCI-H522 lung,> 25 µM
same,TGI,NCI-H522 lung,> 25 µM
same,GI50,SNB-19 CNS,> 25 µM
same,TGI,SNB-19 CNS,> 25 µM
same,GI50,NCI/ADR-RES ovarian,> 25 µM
same,TGI,NCI/ADR-RES ovarian,> 25 µM
same,GI50,CAKI-1 renal,> 25 µM
same,TGI,CAKI-1 renal,> 25 µM
same,GI50,M14 melanoma,> 25 µM
same,TGI,M14 melanoma,> 25 µM
same,GI50,SK-MEL-5 melanoma,> 25 µM
same,TGI,SK-MEL-5 melanoma,> 25 µM
same,GI50,T-47D breast,> 25 µM
same,TGI,T-47D breast,> 25 µM
same,GI50,UACC-257 melanoma,> 25 µM
same,TGI,UACC-257 melanoma,> 25 µM
same,GI50,HT29 colon,> 25 µM
same,TGI,HT29 colon,> 25 µM
same,GI50,K-562 leukemia,> 25 µM
same,TGI,K-562 leukemia,> 25 µM
same,GI50,DU-145 prostate,> 25 µM
same,TGI,DU-145 prostate,> 25 µM
same,GI50,A498 renal,> 25 µM
same,TGI,A498 renal,> 25 µM
same,GI50,KM12 colon,> 25 µM
same,TGI,KM12 colon,> 25 µM
same,GI50,PC-3 prostate,> 25 µM
same,TGI,PC-3 prostate,> 25 µM
same,GI50,EKVX NSCLC,> 25 µM
same,TGI,EKVX NSCLC,> 25 µM
same,GI50,SF-268 CNS,> 25 µM
same,TGI,SF-268 CNS,> 25 µM
same,GI50,IGROV1 ovarian,> 25 µM
same,TGI,IGROV1 ovarian,> 25 µM
same,GI50,SK-MEL-2 melanoma,> 25 µM
same,TGI,SK-MEL-2 melanoma,> 25 µM
same,GI50,U251 CNS,> 25 µM
same,TGI,U251 CNS,> 25 µM
same,GI50,HCT-116 colon,> 25 µM
same,TGI,HCT-116 colon,> 25 µM
same,GI50,LOX IMVI melanoma,> 25 µM
same,TGI,LOX IMVI melanoma,> 25 µM
same,GI50,HCT-15 colon,> 25 µM
same,TGI,HCT-15 colon,> 25 µM
same,GI50,BT-549 breast,> 25 µM
same,TGI,BT-549 breast,> 25 µM
same,GI50,OVCAR-5 ovarian,> 25 µM
same,TGI,OVCAR-5 ovarian,> 25 µM
same,GI50,TK-10 renal,> 25 µM
same,TGI,TK-10 renal,> 25 µM
same,GI50,786-0 renal,> 25 µM
same,TGI,786-0 renal,> 25 µM
same,GI50,SNB-75 CNS,> 25 µM
same,TGI,SNB-75 CNS,> 25 µM
same,GI50,OVCAR-8 ovarian,> 25 µM
same,TGI,OVCAR-8 ovarian,> 25 µM
same,GI50,SK-OV-3 ovarian,> 25 µM
same,TGI,SK-OV-3 ovarian,> 25 µM
same,GI50,SF-539 CNS,> 25 µM
same,TGI,SF-539 CNS,> 25 µM
same,GI50,HS 578T breast,> 25 µM
same,TGI,HS 578T breast,> 25 µM
same,GI50,OVCAR-4 ovarian,> 25 µM
same,TGI,OVCAR-4 ovarian,> 25 µM
same,GI50,SK-MEL-28 melanoma,> 25 µM
same,TGI,SK-MEL-28 melanoma,> 25 µM
same,GI50,SW-620 colon,> 25 µM
same,TGI,SW-620 colon,> 25 µM
same,GI50,MALME-3M melanoma,> 25 µM
same,TGI,MALME-3M melanoma,> 25 µM
same,GI50,SF-295 CNS,> 25 µM
same,TGI,SF-295 CNS,> 25 µM
same,GI50,RXF 393 renal,0.79 µM
same,TGI,RXF 393 renal,> 25 µM
same,GI50,OVCAR-3 ovarian,> 25 µM
same,TGI,OVCAR-3 ovarian,> 25 µM
same,GI50,NCI-H226 lung,> 25 µM
same,TGI,NCI-H226 lung,> 25 µM
same,GI50,MCF7 breast,> 25 µM
same,TGI,MCF7 breast,> 25 µM
same,GI50,COLO 205 colon,> 25 µM
same,TGI,COLO 205 colon,> 25 µM
same,GI50,MDA-MB-231 breast,> 25 µM
same,TGI,MDA-MB-231 breast,> 25 µM
same,GI50,HCC-2998 colon,> 25 µM
same,TGI,HCC-2998 colon,> 25 µM
